From patent US8338480B2, “Combination treatment of metabolic disorders” (Wellstat Therapeutics Corporation, priority 2006, dated 2012)
Structures can show the parent of a compound that is named as a salt.

What was measured:
Format in all cases: in vivo
[1] = test system: Gold Thioglucose-obese (GTG) mice; assay: Body weight and cumulative food intake in gold thioglucose-obese mice (Example 1); details: for Δ BW (g) 0-5 Weeks / Body Weight (g ± SEM) Week 1 / Body Weight (g ± SEM) Week 4 / Body Weight (g ± SEM) Week 5: GTG mice; for Cumulative Food Intake / Cumulative Food Intake (grams): per cage of 5 mice
Protocol: Systemic administration of gold thioglucose (GTG) damages glucose-sensing neurons in the hypothalamus, and consequently impairs regulation of satiety, leading to chronic hyperphagia and consequent obesity. Male C57BL/6J mice, weighing 22 to 25 grams received gold thioglucose (Sigma Chemical Company, St. Louis Mo.) by intraperitoneal injection (500 mg/kg). Mice were given a high fat diet (45% Kcal fat; D12451, Research Diets, New Brunswick, N.J.) for 8 weeks to exacerbate obesity.
Mice were then divided into groups comprising 5 mice each, sorted so that each group had similar mean body weights (approximately 47 grams). Mice received single daily oral treatment with Compound BI, rosiglitazone or combinations of the two drugs. A group of lean control mice on a standard low fat rodent chow was also included.
• 1. Vehicle (1% hydroxypropylmethylcellulose) • 2. Compound BI 30 mg/kg • 3. Compound BI 100 mg/kg • 4. Rosiglitazone (RSG) 3 mg/kg • 5. RSG 3 mg/kg+Compound BI 30 mg/kg • 6. RSG 3 mg/kg+Compound BI 100 mg/kg • 7. Lean Control (no treatment)

Male C57B1/6 mice = assay: Food intake and body weight of male C57Bl/6 mice under restricted feeding (Example 3); details: for Post-treatment Food Intake (5 Hour): 5 hour meal; for Change in Body weight % / Change in Body weight (grams ± SEM) / Post-treatment Body weight: restricted feeding
Protocol: Animals. […] Food was withheld for the remainder of each day. Because of the restricted feeding time, the mice eat less than under ad libitum food availability. Therefore, reduction of food intake in this model requires a drug effect sufficient to overcome the hunger stimulus provided by subnormal daily food intake. Drug Administration. Groups of 10 mice each (individually weighed and marked, divided into 5/cage and trained and monitored as above; were dosed once per day with Compound BI (100 mg/kg), rosiglitazone (3 mg/kg), both drugs, or vehicle by oral gavage at 8 AM for four consecutive days. Comparator groups receiving appetite modulators not suitable for oral dosing (PYY and cerulenin) received intraperitoneal injections at 8 AM for four consecutive days. […] [table]

db/db mice = assay: Serum glucose in db/db mice treated for two weeks (Example 6); details: for Glucose / Glucose (% Control): two weeks daily oral; for Glucose (% Control): vehicle = 100
Protocol: A minimum of 7 days was allowed for adaptation after arrival.
Treatment cohorts were given daily oral doses of vehicle, Compound BI (100 mg/kg/day), rosiglitazone (RSG; 3 mg/kg/day) or a combination of the two drugs for 2 weeks. At the end of the treatment period epididymal fat pads were excised, frozen and subsequently processed for measurement of UCP1 by Western Blot analysis. Blood samples were also collected prior to sacrifice via the retro-orbital plexus, and processed and analyzed for serum glucose (AniLytics, Inc.; Gaithersburg Md.).

[2] = test system: Uncoupling Protein 1 (UCP1); assay: UCP1 content of white adipose tissue by Western blot in db/db mice (Example 6); details: for WAT UCP1 (relative light units): db/db mice epididymal fat pads, two weeks daily oral
Description: Uncoupling Protein 1 (UCP1) is a protein that can dissipate metabolic energy when expressed in the mitochondrial membrane. It is present in brown adipose tissue (BAT; the brown color is due to a higher density of mitochondria than in white adipose tissue) in small mammals where its main function is to generate heat, but it can also serve to accelerate combustion of fatty acids. This latter function is especially important when UCP1 is expressed in tissues other than brown fat, since depots of brown fat are limited in humans Expression of UCP1 in white fat alters the functional phenotype of the tissue from fat storage to fat combustion. Transgenic mice expressing UCP1 in white adipose tissue are resistant to obesity and diabetes induced by a high fat diet. Pharmacological induction of UCP1 expression in white adipose tissue is therefore an attractive strategy for promoting weight reduction and resistance to body weight gain. […]
Treatment cohorts were given daily oral doses of vehicle, Compound BI (100 mg/kg/day), rosiglitazone (RSG; 3 mg/kg/day) or a combination of the two drugs for 2 weeks. […] Blood samples were also collected prior to sacrifice via the retro-orbital plexus, and processed and analyzed for serum glucose (AniLytics, Inc.; Gaithersburg Md.). […]
The membrane was washed 3 times in TBST at room temperature, and then incubated with a primary anti UCPI antibody (Chemicon Rabbit anti-mouse UCP-1, catalogue #AB3036) for 1 hr at RT (room temperature) in a sealed bag. […] The membrane was washed 6×7 min in TBST at room temperature, and then incubated with ECL (enhanced chemiluminescence) reagent (Amersham) for 1 min, and the relative amounts of UCP1 in tissue samples were quantified by densitometry of the images on X-ray film resulting from exposure to light from the chemiluminescence reaction, and expressed as relative light units (RLU).

[3] = Compound BI 30 mg/kg oral daily
[4] = Compound BI 100 mg/kg oral daily
[5] = GTG-obese mice, 5 weeks, Compound BI 30 mg/kg
[6] = GTG-obese mice, 5 weeks, Compound BI 100 mg/kg
[7] = Compound BI 100 mg/kg oral once per day
[8] = GTG-obese mice, 5 weeks, RSG 3 mg/kg
[9] = Rosiglitazone 3 mg/kg oral once per day

Cc1cccc(C)c1COc1cccc(C(=O)CCC(=O)O)c1 [Compound BI, 4-(3-(2,6-Dimethylbenzyloxy)phenyl)-4-oxobutyric acid]
Δ BW (g) 0-5 Weeks [1, 3]: -9.8 ± 0.2 g | Δ BW (g) 0-5 Weeks [1, 4]: -14.6 ± 0.3 g | Body Weight (g ± SEM) Week 1 [1, 3]: 39.8 ± 0.9 g | Body Weight (g ± SEM) Week 1 [1, 4]: 38.4 ± 1.1 g | Body Weight (g ± SEM) Week 4 [1, 3]: 40.0 ± 1.1 g | Body Weight (g ± SEM) Week 4 [1, 4]: 34.0 ± 1.0 g | Body Weight (g ± SEM) Week 5 [1, 3]: 37.4 ± 0.9 g | Body Weight (g ± SEM) Week 5 [1, 4]: 33.0 ± 1.1 g | total food and calorie consumption (in words) ([1]; GTG-obese mice, 5 weeks): reduced total food and calorie consumption | Cumulative Food Intake [1, 5]: 1048 kcal | Cumulative Food Intake (grams) [1, 5]: 223 grams | Cumulative Food Intake [1, 6]: 902 kcal | Cumulative Food Intake (grams) [1, 6]: 192 grams | body weight (in words) ([1]; GTG-obese mice, over the course of 5 weeks): decrease in body weight | Post-treatment Food Intake (5 Hour) (Male C57B1/6 mice; [7]): 2.00 ± 0.18 grams | Change in Body weight % (Male C57B1/6 mice; [7]): −1.90 ± 0.73% | Change in Body weight (grams ± SEM) (Male C57B1/6 mice; [7]): −0.40 ± 0.15 grams | Post-treatment Body weight (Male C57B1/6 mice; [7]): 20.57 ± 0.51 grams | serum glucose (in words) (db/db mice; 2 weeks, Compound BI 100 mg/kg/day, RSG 3 mg/kg/day, alone or combined): reduced serum glucose relative to vehicle treated control animals | Glucose (db/db mice; Cpd. BI 100 mg/kg): 302.0 ± 40.7 mg/dL | Glucose (% Control) (db/db mice; Cpd. BI 100 mg/kg): 44 ± 6 % Control | WAT UCP1 (relative light units) ([2]; Cpd. BI 100 mg/kg): 322 ± 94 relative light units | UCP1 content of white adipose tissue (in words) ([2]; db/db mice, 2 weeks, Compound BI 100 mg/kg/day, RSG 3 mg/kg/day, alone or combined): slightly the UCP1 content of elevated white adipose tissue

CN(CCOc1ccc(CC2SC(=O)NC2=O)cc1)c1ccccn1 (stereo not drawn) [RSG, rosiglitazone maleate, reference compound]
Δ BW (g) 0-5 Weeks ([1]; RSG 3 mg/kg oral daily): -1.2 ± 0.2 g | Body Weight (g ± SEM) Week 1 ([1]; RSG 3 mg/kg oral daily): 47.0 ± 1.0 g | Body Weight (g ± SEM) Week 4 ([1]; RSG 3 mg/kg oral daily): 46.0 ± 1.1 g | Body Weight (g ± SEM) Week 5 ([1]; RSG 3 mg/kg oral daily): 46.3 ± 1.0 g | Cumulative Food Intake [1, 8]: 1293 kcal | Cumulative Food Intake (grams) [1, 8]: 275 grams | Post-treatment Food Intake (5 Hour) (Male C57B1/6 mice; [9]): 2.21 ± 0.15 grams | Change in Body weight % (Male C57B1/6 mice; [9]): −0.55 ± 0.44% | Change in Body weight (grams ± SEM) (Male C57B1/6 mice; [9]): −0.12 ± 0.09 grams | Post-treatment Body weight (Male C57B1/6 mice; [9]): 20.76 ± 0.39 grams | Glucose (db/db mice; RSG 3 mg/kg): 403.7 ± 28.0 mg/dL | Glucose (% Control) (db/db mice; RSG 3 mg/kg): 59 ± 4 % Control | WAT UCP1 (relative light units) ([2]; RSG 3 mg/kg): 2067 ± 717 relative light units
